Test results from the supplement of paper PMC11451515.

Key:
Experiment in all cases: AUC of viability dose-response curve (% viability x log10 dose units); higher = less sensitive
Details in all cases: 48 h
P12-Ichikawa = tested on: P12-Ichikawa
Method in brief: (§1)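 Leukemia cells adapted to each medium (500 or 1000 cells/well, 1536-well plates) were exposed to library compounds in DMSO for 48 h at 37°C at 11 threefold doses, 47 μM to 0.79 nM. Luminescence by CellTiter-Glo One was normalised per plate to DMSO and cell-free wells, then fitted with a four-parameter log-logistic curve on log10 dose. Curves above full viability were scaled and quality-control failures removed before area under the curve was integrated by trapezoidal rule.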

SEM cells = tested on: SEM cells
Method in brief: as §1

NOMO1 = tested on: NOMO1
Method in brief: as §1

[1] = RPMI 5 mM glucose + 10% dialyzed FBS

Compound | AUC of viability dose-response curve (P12-Ichikawa; HPLM + 10% dialyzed FBS) | AUC of viability dose-response curve (P12-Ichikawa; RPMI 5 mM glucose + 10% FBS) | AUC of viability dose-response curve (P12-Ichikawa; [1]) | AUC of viability dose-response curve (SEM cells; HPLM + 10% dialyzed FBS) | AUC of viability dose-response curve (SEM cells; RPMI 5 mM glucose + 10% FBS) | AUC of viability dose-response curve (SEM cells; [1]) | AUC of viability dose-response curve (NOMO1; HPLM + 10% dialyzed FBS) | AUC of viability dose-response curve (NOMO1; RPMI 5 mM glucose + 10% FBS) | AUC of viability dose-response curve (NOMO1; [1])
COc1ccc(F)c(F)c1C(=O)c1cnc(NC2CCN([S+](C)(=O)[O-])CC2)nc1N | 401 | 358 | 360 | 351 | 344 | 381 | 367 | 380 | 380
NC(=O)c1cnccn1 | 463 | 465 | 461 | 462 | 461 | 465 | 464 | 471 | 457
OC[C@H]1O[C@H](C[C@@H]1O)N2/C=C(C(=O)NC2=O)/C(F)(F)F | 317 | 375 | 371 | 317 | 407 | 350 | 356 | 449 | 391
CCC(C)CCCCC(=O)N[C@@H](CCN)C(=O)NC(C(=O)N[C@H](CCN)C(=O)N[C@@H]1CCNC(=O)C([C@@H](C)O)NC(=O)[C@@H](CCN)NC(=O)[C@@H](CCN)NC(=O)[C@@H](CC(C)C)NC(=O)[C@H](Cc2ccccc2)NC(=O)[C@H](CCN)NC1=O)[C@@H](C)O (some centres not stated) | 461 | 457 | 445 | 429 | 471 | 434 | 457 | 451 | 470
CCOC(=O)c1c(C)n(C)c2ccc(O)cc12 | 456 | 436 | 443 | 447 | 462 | 463 | 468 | 455 | 461
O=C(O)c1ccc(O)c2ncc(N3CCOCC3)cc12 | 452 | 431 | 435 | 453 | 424 | 393 | 447 | 417 | 454
Cc1cc(Nc2ncc3c(n2)N(C)C(=O)N(c2cc(NC(=O)c4cccc(C(F)(F)F)c4)ccc2C)C3)n(C)n1 | 399 | 374 | 381 | 293 | 278 | 277 | 341 | 362 | 357
CC/C=C\C[C@H]1C(=O)CC[C@@H]1CC(=O)OC | 460 | 451 | 470 | 469 | 451 | 461 | 470 | 440 | 449
COCCn1c2c([n+](Cc3cnccn3)c1C)C(=O)c1ccccc1C2=O | 251 | 247 | 244 | 161 | 209 | 189 | 194 | 232 | 223
CC(C)(N)C(=O)N[C@H](COCc1ccccc1)C(=O)N1CCC2(CC1)CN([S+](C)(=O)[O-])c1ccccc12 | 445 | 440 | 438 | 448 | 437 | 419 | 402 | 460 | 446
COc1c(Cl)cc2c([nH]c3cnccc32)c1NC(=O)c1cccnc1C | 462 | 468 | 454 | 469 | 405 | 465 | 464 | 473 | 471
CC(=O)N(C)C1(c2ccccc2)CCN(CCC[C@]2(c3ccc(Cl)c(Cl)c3)CCCN(C(=O)c3ccccc3)C2)CC1 | 346 | 387 | 366 | 305 | 303 | 326 | 294 | 344 | 343
CC(C)(N)c1ccc(-c2nc3ccccc3nc2-c2ccccc2)cc1 | 168 | 224 | 219 | 196 | 145 | 181 | 177 | 220 | 241
CC(=O)SC[C@@H](C)C(=O)N1CCC[C@H]1C(=O)N[C@@H](Cc1ccccc1)C(=O)O | 466 | 466 | 462 | 454 | 454 | 472 | 448 | 450 | 466
Cc1c(N)nc([C@H](CC(N)=O)NC[C@@H](N)C(N)=O)nc1C(=O)N[C@H](C(=O)N[C@@H](C)[C@H](O)[C@@H](C)C(=O)N[C@@H](C(=O)NCCc1nc(-c2nc(C(=O)NCCC[S+](C)C)cs2)cs1)[C@@H](C)O)C(O[C@H]1O[C@H](CO)[C@H](O)[C@@H](O)[C@H]1O[C@H]1O[C@H](CO)[C@@H](O)[C@H](OC(N)=O)[C@@H]1O)c1c[nH]cn1 (some centres not stated) | 411 | 378 | 424 | 415 | 382 | 384 | 394 | 416 | 434
CCc1ccc(OCc2ccccc2C(=O)Nc2ccc3nc(C)cc(N)c3c2)cc1 | 409 | 423 | 426 | 377 | 416 | 417 | 368 | 409 | 407
C=CC(=O)Nc1cc2c(Nc3ccc(F)c(Cl)c3)ncnc2cc1C#CC(C)(C)N1CCN(C)CC1 | 395 | 395 | 383 | 360 | 357 | 363 | 382 | 395 | 387
Nc1ccc(C(=O)c2cc3c(ccc4ccccc43)[nH]2)cc1 | 348 | 359 | 359 | 374 | 373 | 361 | 412 | 425 | 417
